Results from US20230181553A1, “COMPOSITION FOR HAIR IMPROVEMENT” (Dr. Cherry Inc., priority 2020, published 2023).

What was measured:
scalp = assay: Change in hair thickness after application of pioglitazone suspension to half side of the scalp with electroporation; format: in vivo, human
Protocol: As pioglitazone, a 15 mg pioglitazone tablet “NP” was used. One pioglitazone tablet was ground in a mortar, and the resultant was suspended in 3 mL of water for injection PL “FUSO” for use. Subjects were three female patients (patients). In each of the patients, lines were extended from both outer canthi toward the head, two points on these lines crossing a line extended between the both ears through the vertex were tattooed with an India ink, and a portion around the marked center was photographed under the same conditions. A suspension of pioglitazone was applied to the entire of half side of the scalp. In order to increase penetration, pioglitazone was caused to penetrate through the skin with META-TDS, Electroporation Machine (CTP-802, Grand Aespio Inc., Korea) at an output of 3 V/6 mA {actually measured value}. This treatment was performed at a frequency of once every two weeks 12 times (namely, for 6 months). The test sites were away from the midline of the head by 51 mm on average on both left and right sides. After 6 months from the start of the treatment (after performing the treatment 12 times), Dermo Prime, dpharris (CHOWIS, Korea) was used to import data of two images of each test site into a computer as digital images, and in each image, three hairs having the largest thickness (6 hairs in two images of each test site) were selected to automatically measure the thickness. An average value of the tested values (hair thickness: mm) was used for graphing. Specifically, assuming that the thickness before the treatment was 100, the thickness after the treatment was indicated as a rate. Regarding a patient group in which the treatment was performed on a half side, a difference between before and after the treatment and a difference between the left and right-side portions were compared.

CD163 = assay: Gene expression in rat skin tissue after subcutaneous administration (qPCR); format: in vivo, Wistar Rat; details: rat back skin, 2.5, 0.1 or 0.02 µg/portion, tissue after 8 weeks, relative to no PG administration
Protocol: (§1) Next, change in gene expression in a tissue was checked. As a subject, 12 weeks old Wistar Rat (male) was used. Regarding a 2.5 µg/portion administration group, three regions were set on the back from the head to the tail, and each of these regions was divided into two regions on both left and right sides of the spine to set six regions on the back in total. In such an administration group, PG was administered to two portions around the center of each of the six regions. Specifically, in the 2.5 µg/portion administration group (n = 3), 2.5 µg (20 µL) of PG was administered per portion. Besides, regarding a 0.1 µg/portion administration group and a 0.02 µg/portion administration group, two regions were set from the head to the tail, and each of these regions was divided into two regions on both left and right sides of the spine, and thus, four regions in total were set on the back. In such an administration group, PG was administered to two portions around the center of each of the four regions. Specifically, in the 0.1 µg/portion administration group (n = 3), 0.1 µg (20 µL) of PG was administered per portion, and in the 0.02 µg/portion administration group (n = 2), 0.02 µg (20 µL) of PG was administered per portion. It is noted that a distance between the two portions was 1 cm. After 8 weeks, a tissue was collected with a 3 mm punch after shaving a portion on the center of the injected portion.
(§2) The collected tissue piece was frozen with liquid nitrogen, and stored at -80° C. […] For gene expression analysis by quantitative PCR, design and synthesis of a gene specific primer and a probe were entrusted to Integrated DNA Technologies, Inc. (Skokie, IL, USA), and an expression level of a target gene was analyzed with Prime Time Gene Expression Master Mix reagent (Integrated DNA Technologies, Inc., Skokie, IL, USA) and a Rotor-Gene Q PCR device (QIAGEN GmbH, Hilden, Germany). […]

CD34 = assay: as above; format: in vivo, Wistar Rat; details: rat back skin, 2.5, 0.1 or 0.02 µg/portion, tissue after 8 weeks, relative to no PG administration
Protocol: as §1, §2

CD68 = assay: as above; format: in vivo, Wistar Rat; details: rat back skin, 2.5, 0.1 or 0.02 µg/portion, tissue after 8 weeks, relative to no PG administration
Protocol: as §1, §2

PPARγ = system: PPARγ; parameters: species or system Wistar Rat; details: rat, in vivo
Protocol: Next, change in gene expression in a tissue was checked. As a subject, 12 weeks old Wistar Rat (male) was used. Regarding a 2.5 µg/portion administration group, three regions were set on the back from the head to the tail, and each of these regions was divided into two regions on both left and right sides of the spine to set six regions on the back in total. In such an administration group, PG was administered to two portions around the center of each of the six regions. Specifically, in the 2.5 µg/portion administration group (n = 3), 2.5 µg (20 µL) of PG was administered per portion. Besides, regarding a 0.1 µg/portion administration group and a 0.02 µg/portion administration group, two regions were set from the head to the tail, and each of these regions was divided into two regions on both left and right sides of the spine, and thus, four regions in total were set on the back. […]

hair thinning = assay: Scalp improvement effect in nine regions in androgenetic alopecia patients (rating of hair growth effect); format: in vivo, human; details: four AGA male patients, oral 5 mg once a day, 2 months
Source text: In this example, the scalp was divided into nine regions to observe the effect of the treatment therein. In this manner, even when each patient has both a good portion (portion having a large hair volume) and a poor portion (portion having a small hair volume), influence on the good portion and influence on the poor portion can be separately evaluated, and thus, it can be expected that highly accurate evaluation can be realized. Subjects were four androgenetic alopecia (AGA) male patients (of 42 to 63 years old) having aggravated as compared with a state 1 year ago. Two patients out of these patients had continuously taken Finasteride, an anti-androgen agent, respectively from 4 years ago and 7 years ago, and continuously took it after starting the following treatment. In this example, pioglitazone, that is a PPARγ agonist, was orally administered to these patients. […] A photograph of each patient taken from directly above 10 to 12 months before starting the treatment of this example, a photograph taken on the day of starting the treatment, and a photograph taken after 2 months from the start of the treatment were evaluated. […] A hair growth effect was evaluated by the 5 medical specialists in accordance with the following rating. […]

Structure (SMILES): CCc1ccc(CCOc2ccc(CC3SC(=O)NC3=O)cc2)nc1 (stereo not drawn) [pioglitazone]
- hair thickness on treated side compared with negative control (scalp; 15 mg tablet suspended in 3 mL water, half side of scalp, once every two weeks 12 times, 1 month to 6 months after treatment, three female patients): increased in the thickness
- change rate of hair thickness on treated side vs change rate in negative control (scalp; half side treatment, 6 months, FIG. 1 lower panel): higher than the change rate obtained in the negative control
- growing rate of hair (particularly anagen-stage hair) (scalp; modification of the scalp with pioglitazone): improvement of a growing rate of hair
- expression of CD163 (CD163): found to simultaneously increase
- expression of CD34 (CD34): found to increase
- expression of CD68 (CD68): found to simultaneously increase
- expression of PPARγ (PPARγ): found to increase
- hair thinning in a site having a high degree of aggravation (hair thinning): trends toward improvement were observed
- progress of hair thinning (hair thinning; rating by 5 medical specialists, FIG. 7B): the progress of hair thinning was at least stopped
